Source: patent US20130345218A1 (Vertex Pharmaceuticals Incorporated, priority 2010, published 2013)
Like-named read-outs stand apart in the source and are kept apart here.

How the values were obtained:
[1] = test system: influenza A virus (A/PR/8/34); assay: microbe, parasite or virus in culture; assay type: cell-based; settings: Influenza A virus, PR/8, MDCK, 72 h, mean IC50 (mean all); MDCK cells, A/PR/8/34, 72 hours; read-out: Flu, MDCK IC50
[2] = test system: influenza A virus (A/PR/8/34) minus-strand viral RNA; assay: microbe, parasite or virus in culture; assay type: cell-based; settings: mean EC50 (mean all), viral RNA by bDNA, read-out: bDNA EC50

Compound	IC50 [1] [µM]	EC50 ([2]; Influenza A virus, PR/8) [µM]	EC50 [2] [µM]
N#Cc1cnc(N[C@@H]2CCC[C@H](NC(=O)C3CC3)C2)nc1-c1c[nH]c2ncc(C(F)(F)F)cc12 (stereo in doubt) [Compound I-10, N-((1S,3R)-3-((5-cyano-4-(5-(trifluoromethyl)-1H-pyrrolo[2,3-b]pyridin-3-yl)pyrimidin-2-yl)amino)cyclohexyl)cyclopropanecarboxamide]	< 3.3	< 3.3	
N#CC1(C(=O)N[C@@H]2CCC[C@H](Nc3nc(-c4c[nH]c5ncc(F)cc45)c(F)cc3F)C2)CC1 [Compound I-23]	< 3.3	< 3.3	
NC(=O)c1cc(F)c(N[C@H]2CCC[C@@H](NC(=O)N3CCOCC3)C2)nc1-c1c[nH]c2ncc(F)cc12 [Compound I-13, N-((1R,3S)-3-((5-carbamoyl-3-fluoro-6-(5-fluoro-1H-pyrrolo[2,3-b]pyridin-3-yl)pyridin-2-yl)amino)cyclohexyl)morpholine-4-carboxamide]	< 3.3	< 3.3	
O=C(O)[C@H]1C2CCC(CC2)[C@@H]1Nc1nc(Cl)nc(-c2c[nH]c3ncc(F)cc23)n1 (racemic) [Compound I-44, (+/−)-trans-3-(4-chloro-6-(5-fluoro-1H-pyrrolo[2,3-b]pyridin-3-yl)-1,3,5-triazin-2-ylamino)bicyclo[2.2.2]octane-2-carboxylic acid]	< 3.3	< 3.3	
O=C(N[C@@H]1CCC[C@H](Nc2nc(-c3c[nH]c4ncc(F)cc34)c(F)cc2F)C1)N1CCCC1 [Compound I-15, N-((1R,3S)-3-((3,5-difluoro-6-(5-fluoro-1H-pyrrolo[2,3-b]pyridin-3-yl)pyridin-2-yl)amino)cyclohexyl)pyrrolidine-1-carboxamide]	< 3.3	< 3.3	
COCC(=O)N[C@@H]1CCC[C@H](Nc2ncc(C#N)c(-c3c[nH]c4ncc(C(F)(F)F)cc34)n2)C1 [Compound I-9, N-((1R,3S)-3-((5-cyano-4-(5-(trifluoromethyl)-1H-pyrrolo[2,3-b]pyridin-3-yl)pyrimidin-2-yl)amino)cyclohexyl)-2-methoxyacetamide]	< 3.3	< 3.3	
N#Cc1cc(F)c(N[C@H]2CCC[C@@H](NC(=O)N3CC[C@H](F)C3)C2)nc1-c1c[nH]c2ncc(F)cc12 [Compound I-43, (S)—N-((1R,3S)-3-((5-cyano-3-fluoro-6-(5-fluoro-1H-pyrrolo[2,3-b]pyridin-3-yl)pyridin-2-yl)amino)cyclohexyl)-3-fluoropyrrolidine-1-carboxamide]	< 3.3	< 3.3	
(+/−)-(exo)-7-((3,5-difluoro-6-(5-fluoro-1H-pyrrolo[2,3-b]pyridin-3-yl)pyridin-2-yl)amino)bicyclo[3.2.2]nonane-6-carboxylic acid [Compound I-36]			< 3.3
COC(=O)[C@H]1C2CCC(CC2)[C@@H]1Nc1nc(-c2c[nH]c3ncc(Cl)cc23)c(F)cc1F [Compound I-33, (2S,3S)-methyl 3-((6-(5-chloro-1H-pyrrolo[2,3-b]pyridin-3-yl)-3,5-difluoropyridin-2-yl)amino)bicyclo[2.2.2]octane-2-carboxylate]	< 3.3	< 3.3	
N#Cc1cc(F)c(N[C@H]2C3CCC(CC3)[C@@H]2C(=O)O)nc1-c1c[nH]c2ncc(F)cc12 (racemic) [Compound I-30]	< 3.3	< 3.3	
CN(C)C(=O)N[C@@H]1CCC[C@H](Nc2nc(-c3c[nH]c4ncc(F)cc34)c(F)cc2F)C1 [Compound I-17, 3-((1R,3S)-3-((3,5-difluoro-6-(5-fluoro-1H-pyrrolo[2,3-b]pyridin-3-yl)pyridin-2-yl)amino)cyclohexyl)-1,1-dimethylurea]	< 3.3	< 3.3	
O=C(N[C@@H]1CCC[C@H](Nc2nc(-c3c[nH]c4ncc(F)cc34)c(F)cc2F)C1)N1CC[C@H](F)C1 [Compound I-24, (S)—N-((1R,3S)-3-((3,5-difluoro-6-(5-fluoro-1H-pyrrolo[2,3-b]pyridin-3-yl)pyridin-2-yl)-amino)cyclohexyl)-3-fluoropyrrolidine-1-carboxamide]	< 3.3	< 3.3	
Cn1cnc(C(=O)N[C@@H]2CCC[C@H](Nc3nc(-c4c[nH]c5ncc(F)cc45)c(F)cc3F)C2)c1 [Compound I-18, N-((1R,3S)-3-((3,5-difluoro-6-(5-fluoro-1H-pyrrolo[2,3-b]pyridin-3-yl)pyridin-2-yl)-amino)cyclohexyl)-1-methyl-1H-imidazole-4-carboxamide]	< 3.3	< 3.3	
O=C(N[C@@H]1CCC[C@H](Nc2nc(-c3c[nH]c4ncc(F)cc34)c(F)cc2F)C1)N1CCC(F)(F)C1 [Compound I-25, N-((1R,3S)-3-((3,5-difluoro-6-(5-fluoro-1H-pyrrolo[2,3-b]pyridin-3-yl)pyridin-2-yl)-amino)cyclohexyl)-3,3-difluoropyrrolidine-1-carboxamide]	< 3.3	< 3.3	
N#Cc1cc(F)c(N[C@H]2CCC[C@@H](NC(=O)N3CCOCC3)C2)nc1-c1c[nH]c2ncc(Cl)cc12 [Compound I-11, N-((1R,3S)-3-((6-(5-chloro-1H-pyrrolo[2,3-b]pyridin-3-yl)-5-cyano-3-fluoro-pyridin-2-yl)amino)cyclohexyl)morpholine-4-carboxamide]	< 3.3	< 3.3	
O=C(N[C@@H]1CCC[C@H](Nc2nc(-c3c[nH]c4ncc(F)cc34)c(C(F)(F)F)cc2F)C1)N1CCCC1 (stereo in doubt) [Compound I-20, N-((1R,3S)-3-((3-fluoro-6-(5-fluoro-1H-pyrrolo[2,3-b]pyridin-3-yl)-5-(trifluoromethyl)-pyridin-2-yl)amino)cyclohexyl)pyrrolidine-1-carboxamide]	< 3.3	< 3.3	

Compound	IC50 [1] [µM]	EC50 ([2]; Influenza A virus, PR/8) [µM]	EC50 [2] [µM]
O=C(O)[C@@H]1C2CCC(CC2)[C@H]1Nc1nc(-c2c[nH]c3ncc(F)cc23)c(F)cc1F [Compound I-26]	< 3.3	< 3.3	
N#Cc1cnc(N[C@H]2CCC[C@@H](C(=O)O)C2)nc1-c1c[nH]c2ncc(Cl)cc12 [Compound I-3, (1R,3S)-3-((4-(5-chloro-1H-pyrrolo[2,3-b]pyridin-3-yl)-5-cyanopyrimidine-2-yl)amino)-cyclohexanecarboxylic acid]	< 3.3	< 3.3	
O=C(O)[C@@H]1C2CCC(CC2)[C@H]1Nc1nc(-c2c[nH]c3ncc(F)cc23)c(F)cc1F [Compound I-27]			< 3.3
O=C(N[C@@H]1CCC[C@H](Nc2nc(-c3c[nH]c4ncc(F)cc34)c(F)cc2F)C1)c1ccsc1 [Compound I-47, N-((1R,3S)-3-((3,5-difluoro-6-(5-fluoro-1H-pyrrolo[2,3-b]pyridin-3-yl)pyridin-2-yl)amino)cyclohexyl)thiophene-3-carboxamide]	< 3.3	< 3.3	
N#Cc1cc(F)c(N[C@H]2CCC[C@@H](NC(=O)N3CC[C@@H](F)C3)C2)nc1-c1c[nH]c2ncc(F)cc12 [Compound I-14, (R)—N-((1R,3S)-3-((5-cyano-3-fluoro-6-(5-fluoro-1H-pyrrolo[2,3-b]pyridin-3-yl)pyridin-2-yl)amino)cyclohexyl)-3-fluoropyrrolidine-1-carboxamide]	< 3.3	< 3.3	
O=C(N[C@@H]1CCC[C@H](Nc2nc(-c3c[nH]c4ncc(F)cc34)c(C(F)(F)F)cc2F)C1)N1CCCC1 [Compound I-19]	< 3.3	< 3.3	
CC1(C(=O)N[C@@H]2CCC[C@H](Nc3ncc(C#N)c(-c4c[nH]c5ncc(C(F)(F)F)cc45)n3)C2)CC1 [Compound I-6, N-((1R,3S)-3-((5-cyano-4-(5-(trifluoromethyl)-1H-pyrrolo[2,3-b]pyridin-3-yl)pyrimidin-2-yl)amino)cyclohexyl)-1-methylcyclopropanecarboxamide]	< 3.3	< 3.3	
O=C(O)[C@@H]1C2CCC(CC2)[C@H]1Nc1nc(-c2c[nH]c3ncc(Cl)cc23)c(F)cc1F [Compound I-32]	< 3.3	< 3.3	
N#Cc1cnc(N[C@H]2CCCC[C@@H]2C(=O)O)nc1-c1c[nH]c2ncc(Cl)cc12 [Compound I-1, (1S,2S)-2-((4-(5-chloro-1H-pyrrolo[2,3-b]pyridin-3-yl)-5-cyanopyrimidine-2-yl)amino)-cyclohexanecarboxylic acid]	< 3.3	< 3.3	
O=C(O)[C@H]1C2CCC(CC2)[C@@H]1Nc1nc(-c2c[nH]c3ncc(F)cc23)ccc1F (racemic) [Compound I-35, (+/−) 3-(3-fluoro-6-(5-fluoro-1H-pyrrolo[2,3-b]pyridin-3-yl)pyridin-2-ylamino)bicyclo[2.2.2]octane-2-carboxylic acid]	< 3.3	< 3.3	
N#Cc1cnc(N[C@H]2CCC[C@@H](C(=O)O)C2)nc1-c1c[nH]c2ncccc12 [Compound I-5]	≥ 3.3		
O=C(N[C@H]1CCC[C@@H](Nc2nc(-c3c[nH]c4ncc(F)cc34)c(C(F)(F)F)cc2F)C1)N1CCOCC1 [Compound I-21]	< 3.3	< 3.3	
O=C(O)[C@H]1C2CCC(CC2)[C@@H]1Nc1cc(C(F)(F)F)cc(-c2c[nH]c3ncc(F)cc23)n1 (racemic) [Compound I-37, (+/−)-trans-3-((6-(5-fluoro-1H-pyrrolo[2,3-b]pyridin-3-yl)-4-(trifluoro-methyl)pyridin-2-yl)amino)bicyclo[2.2.2]octane-2-carboxylic acid]	< 3.3	< 3.3	
O=C(O)[C@H]1C2CCC(CC2)[C@@H]1Nc1cnnc(-c2c[nH]c3ncc(F)cc23)n1 [Compound I-46]	< 3.3	< 3.3	
O=C(O)[C@H]1C2CCC(CC2)[C@@H]1Nc1cncc(-c2c[nH]c3ncc(F)cc23)n1 (mixture of isomers) [Compound I-38]	< 3.3	< 3.3	
O=C(O)[C@H]1C2CCC(CC2)[C@@H]1Nc1cc(C(F)(F)F)cc(-c2c[nH]c3ncc(F)cc23)n1 [Compound I-40]	< 3.3	< 3.3	
